Holding throughout (format): physicochemical
Data set [1] can be described thus: Kinetic solubility in bio-relevant media (SGF, FaSSIF, FeSSIF) and H2O at 37° C. The following applies: for solubility at 24 h / solubility at 4 h: 37 °C, thermodynamic from solid; for Form change after kinetic solubility test: bio-relevant media or H2O, XRPD of residual solids. The procedure:
Kinetic solubility tests of Form A, Form B, and Form C was performed in bio-relevant media (SGF, FaSSIF and FeSSIF) and H2O at 37° C. Solids were suspended into FaSSIF, FeSSIF, SGF and H2O with target conc. of ˜10 mg/mL. The suspensions were agitated on a rolling incubator at 25 rpm (in the incubator set at 37° C.) for 1, 4 and 24 hrs. At each time point, 1 mL of the suspension was pipetted out for centrifugation at 25000 rpm (3 min) and filtration through 0.45 μm membrane to obtain supernatant for HPLC solubility and pH tests. The residual solids were analyzed by XRPD. […] The solubility of Form A/B/C was summarized from Table 22-24.

Data set [2] in a line: Dynamic Vapor Sorption (DVS). To be noted: for Weight gain by DVS: 0 percent to 95 percent relative humidity; for Weight gain by DVS / Hygroscopicity: about 25 degrees centigrade; for Form change after DVS test: XRPD after DVS, 25° C., 0 to 95% RH; for Hygroscopicity: no hygroscopicity = weight gain less than 0.2 weight percent, 0 to 95 percent RH. How it is done:
DVS was measured via a SMS (Surface Measurement Systems) DVS Intrinsic. The relative humidity at 25° C. were calibrated against deliquescence point of LiCl, Mg(NO3)2 and KCl. To investigate the solid form stability as a function of humidity, DVS isotherm plots of Form A, Form B, and Form C were collected at 25° C. between 0 and 95% RH. […] As determined by Dynamic Vapor Sorption (DVS) in the range of from 0 percent to 95 percent relative humidity at a temperature of about 25 degrees centigrade (plus or minus 0.2 degrees C.), the crystalline Form A, Form B, and Form C of Compound (I) show a weight gain of about 0.09 weight percent, 0.07 weight percent, and 5.7 weight percent, respectively.

Data set [3] can be described thus: Physical and chemical stability on storage (XRPD and HPLC). The following applies: 40° C./75% RH; 25° C./60% RH; 60° C.; two and four weeks. The procedure:
To evaluate the physical and chemical stability, Form A, Form B, and Form C were stored in 3 conditions (40° C./75% RH; 25° C./60% RH; and 60° C.) for two and four weeks. All samples were characterized using XRPD and HPLC.

The nature of data set [4]: Slurry competition experiments (inter-conversion study of crystal forms). The following applies: for Thermodynamic stability relationship / conversion in slurry: slurry in H2O and n-Heptane for 2 days, RT and 70° C. The procedure: To understand the thermodynamic stability relationship between Form A, B and C, slurry competition experiments in H2O and n-Heptane were performed at RT and 70° C. Prior to the study, the starting material (Form A of Compound (I)) was used to saturate the corresponding solvent at RT and 70° C. before filtered to obtain a near-saturated solution. Equal amounts (˜ 5 mg) of Form A, Form B and Form C were weighed and then added to 0.3 mL of the prepared solution to form a new suspension, which was stirred magnetically (˜1000 rpm) at RT/70° C. for about 2 days.

Data set [5] in a line: Equilibrium solubility in pH buffers, residual solid by XRPD. The following applies: 8 pH buffers (pH 1.0-8.0), RT, 24 hrs, XRPD of residual solids. How it is done:
Equilibrium solubility of Form B was measured in 8 pH buffers (i.e., pH 1.0, 2.0, 3.0, 4.0, 5.0, 6.0, 7.0, 8.0) at RT for 24 hrs. Solids were suspended into pH buffers with target conc. of ˜10 mg/mL. The suspensions were slurried at RT for 24 hrs (1000 rpm), prior to centrifugation at 20000 rpm (2 min), and filtration through 0.45 μm membrane to obtain supernatant for HPLC solubility and pH tests. The residual solids were analyzed by XRPD.

A short description of data set [6]: Form identification by heating to 100° C. and cooling to RT (XRPD comparison). The procedure: A weight loss of 5.7% up to 100° C. was observed on the TGA curve for Form C prepared by evaporation. […] (peak temperature) and 124.9° C. (onset temperature). […] (peak temperature) and 127.0° C. (onset temperature) were observed on the DSC curve. For form identification, variable-temperature XRPD (VT-XRPD) was performed for Form C. […] Considering the large TGA weight loss and no XRPD change after removal of water/solvent (VT-XRPD). Single crystal structure determination confirmed that Form C is a channel hydrate (without form change after dehydration).
A two-stage weight loss of 3.8% up to 85° C. and 11.5% from 85° C. to 120° C. was observed on the TGA curve. […] For form identification, Form D was heated to 100° C. and cooled to RT. […] According to the results, Form D was characterized to be an IPA solvate.

Data set [7] is described as follows: Exposure to ambient condition (XRPD comparison). The source says:
Therefore, TGA and DSC characterizations were not performed for Form E. According to the single crystal structure determination results, Form E is a DCM solvate.

This is an account of results in US11999750B2, “Crystalline forms of (S)-5-benzyl-N-(5-methyl-4-oxo-2,3,4,5-tetrahydropyrido [3,2-B][1,4]oxazepin-3-yl)-4H-1,2,4-triazole-3-carboxamide” (Denali Therapeutics Inc., priority 2022, dated 2024).

Converted amounts (≈) assume the structure as drawn. “Also recorded” adds a separate entry of the source.

With `CN1C(=O)[C@@H](NC(=O)c2nnc(Cc3ccccc3)[nH]2)COc2cccnc21` [Form A, (S)-5-benzyl-N-(5-methyl-4-oxo-2,3,4,5-tetrahydropyrido [3,2-b][1,4]oxazepin-3-yl)-4H-1,2,4-triazole-3-carboxamide], the solubility at 24 h is 100 µg/mL (≈ 264 µM) in data set [1] (FaSSIF, pH 6.5, fassif, FaSSIF (pH 6.5), 24 hr); 120 µg/mL (≈ 317 µM) in data set [1] (FeSSIF, pH 5, fessif, FeSSIF (pH 5.0), 24 hr); 100 µg/mL (≈ 264 µM) in data set [1] (SGF, pH 1.8, simulated gastric fluid, SGF (pH 1.8), 24 hr); 90 µg/mL (≈ 238 µM) in data set [1] (water, pH 6.5, water, H2O (pH 6.5), 24 hr). In addition, the Solubility in data set [1] (FeSSIF (pH 5.0), 1 hr) came to 120 µg/mL (≈ 317 µM); in data set [1] (H2O (pH 6.5), 1 hr), 80 µg/mL (≈ 211 µM). The solubility at 4 h in data set [1] (FeSSIF, pH 5, fessif, FeSSIF (pH 5.0), 4 hr) was 120 µg/mL (≈ 317 µM); in data set [1] (SGF, pH 1.8, simulated gastric fluid, SGF (pH 1.8), 4 hr) it was 100 µg/mL (≈ 264 µM); in data set [1] (water, pH 6.5, water, H2O (pH 6.5), 4 hr), 90 µg/mL (≈ 238 µM). The “Form change after kinetic solubility test” value in data set [1] is given as “No form change”. The “Weight gain by DVS” value in data set [2] is reported as “about 0.09 weight percent”. In addition, the “Form change after DVS test” value in data set [2] is given as “no form change”. For the same compound, the Hygroscopicity result in data set [2] is listed as “no hygroscopicity; also recorded: less hygroscopic”. Moreover, the “Form change on storage (XRPD)” value in data set [3] is “no observable form change”. The “HPLC purity change on storage” value in data set [3] is “no noticeable HPLC purity change”. The “Thermodynamic stability relationship / conversion in slurry” value in data set [4] is on record as “converted to Form B”.
As for `CN1C(=O)[C@@H](NC(=O)c2nnc(Cc3ccccc3)[nH]2)COc2cccnc21` [Form B, (S)-5-benzyl-N-(5-methyl-4-oxo-2,3,4,5-tetrahydropyrido [3,2-b][1,4]oxazepin-3-yl)-4H-1,2,4-triazole-3-carboxamide], the Solubility in data set [1] (FaSSIF (pH 6.5), 1 hr) was 80 µg/mL (≈ 211 µM); in data set [1] (FaSSIF (pH 6.5), 4 hr) it was 90 µg/mL (≈ 238 µM); in data set [1] (FaSSIF (pH 6.5), 24 hr), 90 µg/mL (≈ 238 µM); in data set [1] (FeSSIF (pH 5.0), 1 hr), 100 µg/mL (≈ 264 µM); in data set [1] (FeSSIF (pH 5.0), 4 hr), 110 µg/mL (≈ 291 µM); in data set [1] (FeSSIF (pH 5.0), 24 hr), 100 µg/mL (≈ 264 µM). The Solubility stood at 70 µg/mL (≈ 185 µM) in data set [1] (H2O (pH 6.5), 1 hr); 70 µg/mL (≈ 185 µM) in data set [1] (H2O (pH 6.5), 4 hr); 70 µg/mL (≈ 185 µM) in data set [1] (H2O (pH 6.5), 24 hr); 80 µg/mL (≈ 211 µM) in data set [1] (SGF (pH 1.8), 1 hr); 80 µg/mL (≈ 211 µM) in data set [1] (SGF (pH 1.8), 4 hr); 80 µg/mL (≈ 211 µM) in data set [1] (SGF (pH 1.8), 24 hr). The “Form change after kinetic solubility test” value in data set [1] is “No form change”. For the same compound, the “Weight gain by DVS” value in data set [2] is listed as about 0.07 weight percent. Further, the “Form change after DVS test” value in data set [2] was “no form change”. In addition, the Hygroscopicity entry in data set [2] is given as “less hygroscopic; also recorded: no hygroscopicity; also recorded: not hygroscopic”. For the same compound, the “Form change on storage (XRPD)” value in data set [3] was “no observable form change”. In data set [3], the “HPLC purity change on storage” value is “no noticeable HPLC purity change”. Further, the “Thermodynamic stability relationship / conversion in slurry” value in data set [4] is recorded as “thermodynamically more stable”. In addition, the “Form change after equilibrium solubility evaluation” value in data set [5] is recorded as “No form change”.
`CN1C(=O)[C@@H](NC(=O)c2nnc(Cc3ccccc3)[nH]2)COc2cccnc21` [Form D, (S)-5-benzyl-N-(5-methyl-4-oxo-2,3,4,5-tetrahydropyrido [3,2-b][1,4]oxazepin-3-yl)-4H-1,2,4-triazole-3-carboxamide]: in data set [6], the “Form change after heating to 100° C. and cooling to RT” value was “converted to Form C”.
Turning to `CN1C(=O)[C@@H](NC(=O)c2nnc(Cc3ccccc3)[nH]2)COc2cccnc21` [Form E, (S)-5-benzyl-N-(5-methyl-4-oxo-2,3,4,5-tetrahydropyrido [3,2-b][1,4]oxazepin-3-yl)-4H-1,2,4-triazole-3-carboxamide], in data set [7], the “Form change on exposure to ambient condition” value was “converted to Form C”.
Turning to `CN1C(=O)[C@@H](NC(=O)c2nnc(Cc3ccccc3)[nH]2)COc2cccnc21` [Form A + B + C], the “Crystal form after slurry competition” value in data set [4] (H2O or n-Heptane, RT or 70° C., about 2 days (experiments 1-4, merged cell)) was “Form B”.
For the compound `CN1C(=O)[C@@H](NC(=O)c2nnc(Cc3ccccc3)[nH]2)COc2cccnc21` [Form C, (S)-5-benzyl-N-(5-methyl-4-oxo-2,3,4,5-tetrahydropyrido [3,2-b][1,4]oxazepin-3-yl)-4H-1,2,4-triazole-3-carboxamide], the Solubility in data set [1] (FaSSIF (pH 6.5), 1 hr) was found to be 860 µg/mL (≈ 2270 µM); in data set [1] (FaSSIF (pH 6.5), 4 hr), 730 µg/mL (≈ 1930 µM); in data set [1] (FaSSIF (pH 6.5), 24 hr), 150 µg/mL (≈ 396 µM); in data set [1] (FeSSIF (pH 5.0), 1 hr), 970 µg/mL (≈ 2560 µM); in data set [1] (FeSSIF (pH 5.0), 4 hr) it was 150 µg/mL (≈ 396 µM); in data set [1] (FeSSIF (pH 5.0), 24 hr), 170 µg/mL (≈ 449 µM). In addition, the Solubility in data set [1] (H2O (pH 6.5), 1 hr) came to 440 µg/mL (≈ 1160 µM); in data set [1] (H2O (pH 6.5), 4 hr) it was 100 µg/mL (≈ 264 µM); in data set [1] (H2O (pH 6.5), 24 hr), 100 µg/mL (≈ 264 µM); in data set [1] (SGF (pH 1.8), 1 hr), 700 µg/mL (≈ 1850 µM); in data set [1] (SGF (pH 1.8), 4 hr), 110 µg/mL (≈ 291 µM); in data set [1] (SGF (pH 1.8), 24 hr), 100 µg/mL (≈ 264 µM). For the same compound, in data set [1], the “Form change after kinetic solubility test” value is listed as “converted to Form A”. The “Final Form” value in data set [1] (residual solid by XRPD, H2O (pH 6.5), 1 hr) is “A + C”. The “Weight gain by DVS” value in data set [2] is recorded as about 5.7 weight percent. In data set [2], the “Form change after DVS test” value was “no form change”. In addition, in data set [3], the “Form change on storage (XRPD)” value is on record as “no observable form change”. Besides, the “HPLC purity change on storage” value in data set [3] is “no noticeable HPLC purity change”. Moreover, the “Thermodynamic stability relationship / conversion in slurry” value in data set [4] is given as “converted to Form B”. For the same compound, the “Form change after heating to 100° C. and cooling to RT” value in data set [6] was “no form change”.

By solubility is commonly meant the concentration that dissolves in the medium under given conditions. For orientation: Solubility means the dissolved amount per volume that the medium holds. A low value points to little dissolved substance.
